Data from ChEMBL document CHEMBL1201862, “PubChem BioAssay data set” (2004).
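Growth conditions: 96-well plates. Treatment: test compound, 48 hours, 5 concentrations. Analysis: linear interpolation between bracketing concentrations; unreached endpoints set to highest concentration. Here, GI50 denotes the concentration required for 50% inhibition of growth.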 Calls of active or inactive are those of the source. No stated cut-off is given here; in the data, active = GI50 up to about 1.1 µM and inactive = higher.

What was measured:
Assay in all cases: DTP human tumour cell line panel, 48 h
UACC-257 = system: UACC-257
T47D = system: T47D
OVCAR-8 = system: OVCAR-8
PC-3 = system: PC-3
ACHN = system: ACHN
SN12C = system: SN12C
SF-539 = system: SF-539
SW-620 = system: SW-620
MDA-MB-435 = system: MDA-MB-435
K562 = system: K562
LOX IMVI = system: LOX IMVI
HT-29 = system: HT-29
SR = system: SR
SK-OV-3 = system: SK-OV-3
NCI-H522 = system: NCI-H522
NCI-H226 = system: NCI-H226
SNB-19 = system: SNB-19
U-251 = system: U-251
MDA-MB-231 = system: MDA-MB-231
MCF7 = system: MCF7
NCI-H460 = system: NCI-H460
TK-10 = system: TK-10
HCC 2998 = system: HCC 2998
UACC-62 = system: UACC-62
OVCAR-5 = system: OVCAR-5
HOP-92 = system: HOP-92
SNB-75 = system: SNB-75
DU-145 = system: DU-145
UO-31 = system: UO-31
Hs-578T = system: Hs-578T
Malme-3M = system: Malme-3M
KM12 = system: KM12
MOLT-4 = system: MOLT-4
OVCAR-3 = system: OVCAR-3
IGROV-1 = system: IGROV-1
SK-MEL-28 = system: SK-MEL-28
A498 = system: A498
COLO 205 = system: COLO 205
CCRF-CEM = system: CCRF-CEM
RXF 393 = system: RXF 393
EKVX = system: EKVX
786-0 = system: 786-0
SF-268 = system: SF-268
CAKI-1 = system: CAKI-1
SK-MEL-2 = system: SK-MEL-2
RPMI-8226 = system: RPMI-8226
NCI/ADR-RES = system: NCI/ADR-RES
HCT-116 = system: HCT-116
M14 = system: M14
HCT-15 = system: HCT-15
BT-549 = system: BT-549
A549 = system: A549
HL-60 = system: HL-60
SF-295 = system: SF-295
SK-MEL-5 = system: SK-MEL-5
HOP-62 = system: HOP-62
NCI-H23 = system: NCI-H23
OVCAR-4 = system: OVCAR-4

Measured: GI50

Clc1ccc2c(SCC3CO3)c3ccccc3nc2c1 (centres undefined)
inactive: UACC-257 2.49 µM | T47D 1.66 µM | OVCAR-8 2.19 µM | PC-3 2.65 µM | ACHN 2.06 µM | SN12C 2.02 µM | SF-539 2.13 µM | SW-620 1.92 µM | MDA-MB-435 3.15 µM | K562 1.87 µM | LOX IMVI 2.25 µM | HT-29 1.64 µM | SR 2.04 µM | SK-OV-3 21.1 µM | NCI-H522 2.08 µM | NCI-H226 22.9 µM | SNB-19 5.43 µM | U-251 1.84 µM | MDA-MB-231 2.33 µM | MCF7 1.47 µM | NCI-H460 4.27 µM | TK-10 1.74 µM | HCC 2998 4.81 µM | UACC-62 3.61 µM | OVCAR-5 4.36 µM | HOP-92 2.12 µM | SNB-75 9.55 µM | DU-145 1.57 µM | UO-31 1.76 µM | Hs-578T 2.72 µM | Malme-3M 2.04 µM | KM12 1.7 µM | MOLT-4 1.85 µM | OVCAR-3 1.73 µM | IGROV-1 1.33 µM | SK-MEL-28 2.88 µM | A498 17.3 µM | COLO 205 3.02 µM | CCRF-CEM 2.43 µM | RXF 393 2.66 µM | EKVX 4.9 µM | 786-0 1.81 µM | SF-268 3.18 µM | CAKI-1 1.49 µM | SK-MEL-2 2.7 µM | RPMI-8226 2.42 µM | NCI/ADR-RES 2.43 µM | HCT-116 1.66 µM | M14 1.72 µM | BT-549 6.03 µM | A549 7.31 µM | SF-295 16.5 µM | SK-MEL-5 4.84 µM | HOP-62 6.25 µM | NCI-H23 3.54 µM | OVCAR-4 3.87 µM
1.68 µM: HCT-15
active: HL-60 1.04 µM

N#CC(=C1CCN(CCCC(=O)c2ccc(F)cc2)CC1)c1ccccc1
inactive: UACC-257 > 100 µM | T47D > 100 µM | OVCAR-8 > 100 µM | PC-3 > 100 µM | ACHN > 100 µM | SN12C > 100 µM | SF-539 > 100 µM | SW-620 > 100 µM | MDA-MB-435 > 100 µM | K562 > 100 µM | LOX IMVI > 100 µM | HT-29 62.2 µM | SR > 100 µM | SK-OV-3 > 100 µM | NCI-H522 21.3 µM | NCI-H226 > 100 µM | SNB-19 > 100 µM | U-251 > 100 µM | MDA-MB-231 > 100 µM | MCF7 > 100 µM | NCI-H460 > 100 µM | TK-10 > 100 µM | HCC 2998 > 100 µM | UACC-62 > 100 µM | OVCAR-5 > 100 µM | HOP-92 > 100 µM | SNB-75 > 100 µM | DU-145 > 100 µM | UO-31 > 100 µM | Hs-578T > 100 µM | Malme-3M > 100 µM | KM12 > 100 µM | MOLT-4 > 100 µM | IGROV-1 > 100 µM | SK-MEL-28 > 100 µM | A498 > 100 µM | COLO 205 > 100 µM | CCRF-CEM > 100 µM | RXF 393 > 100 µM | EKVX > 100 µM | 786-0 > 100 µM | SF-268 > 100 µM | CAKI-1 > 100 µM | SK-MEL-2 > 100 µM | RPMI-8226 > 100 µM | NCI/ADR-RES > 100 µM | HCT-116 > 100 µM | BT-549 > 100 µM | A549 > 100 µM | HL-60 > 100 µM | SF-295 > 100 µM | SK-MEL-5 > 100 µM | NCI-H23 > 100 µM | OVCAR-4 > 100 µM
> 100 µM: HCT-15

O=S(=O)(O)c1ccc(-c2c3nc(c(-c4ccc(S(=O)(=O)O)cc4)c4ccc([nH]4)c(-c4ccc(S(=O)(=O)O)cc4)c4nc(c(-c5ccc(S(=O)(=O)O)cc5)c5ccc2[nH]5)C=C4)C=C3)cc1
inactive: UACC-257 > 100 µM | T47D 33 µM | OVCAR-8 > 100 µM | PC-3 > 100 µM | ACHN 45.7 µM | SN12C 42.7 µM | SF-539 > 100 µM | SW-620 97.5 µM | MDA-MB-435 61 µM | K562 37.2 µM | LOX IMVI 37.8 µM | HT-29 49.8 µM | SR 45.3 µM | SK-OV-3 58.3 µM | NCI-H522 47.3 µM | NCI-H226 32.7 µM | SNB-19 65.9 µM | U-251 60.5 µM | MDA-MB-231 20.9 µM | MCF7 > 100 µM | NCI-H460 57.5 µM | TK-10 21.6 µM | UACC-62 > 100 µM | OVCAR-5 53.5 µM | HOP-92 91.2 µM | SNB-75 > 100 µM | DU-145 39.1 µM | UO-31 37.4 µM | Hs-578T 13.9 µM | Malme-3M 32.5 µM | KM12 51.5 µM | MOLT-4 3.1 µM | OVCAR-3 36.3 µM | IGROV-1 53.3 µM | SK-MEL-28 24.1 µM | A498 > 100 µM | COLO 205 42 µM | CCRF-CEM 23 µM | RXF 393 26.9 µM | 786-0 > 100 µM | SF-268 > 100 µM | CAKI-1 28.3 µM | SK-MEL-2 > 100 µM | RPMI-8226 52.8 µM | NCI/ADR-RES 90.6 µM | HCT-116 > 100 µM | M14 > 100 µM | BT-549 28 µM | A549 55.6 µM | HL-60 55.5 µM | SF-295 47.4 µM | SK-MEL-5 51.2 µM | HOP-62 > 100 µM | NCI-H23 64.4 µM | OVCAR-4 29 µM
26.4 µM: HCT-15
